Source: the supplement of paper PMC8967900

How the values were obtained:
Assay in all cases: selective drug sensitivity score (sDSS, relative to normal bone marrow) (sDSS (score)); higher = more potent and effective on the cell line relative to normal bone marrow cells
Conditions in all cases: 72 h
PF-382 = test system: PF-382
KASUMI-10 = test system: KASUMI-10
NALM-16 = test system: NALM-16
KASUMI-9 = test system: KASUMI-9
MOLT-4 = test system: MOLT-4
DND-41 = test system: DND-41
697 = test system: 697
MHH-CALL-3 = test system: MHH-CALL-3
TANOUE = test system: TANOUE
MHH-CALL-2 = test system: MHH-CALL-2
CCRF-HSB2 = test system: CCRF-HSB2
SEM cells = test system: SEM cells
NALM-6 = test system: NALM-6
P12-ICHIKAWA = test system: P12-ICHIKAWA
KARPAS-45 = test system: KARPAS-45
COG-LL-332h = test system: COG-LL-332h
COG-LL-394h = test system: COG-LL-394h
MOLT-14 = test system: MOLT-14
P30-OHKUBO = test system: P30-OHKUBO
COG-LL-355h = test system: COG-LL-355h
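Also: ALL cell lines in 384-well plates, five doses spanning 10,000-fold, each plate scaled between vehicle and 100 µmol/L benzalkonium chloride controls, sDSS an adapted area-under-curve metric.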

CN1CCN(C2CCC(n3cc(-c4ccc(Oc5ccccc5)cc4)c4c(N)ncnc43)CC2)CC1 (stereo not given) (top concentration 10000 nM)
selective drug sensitivity score (PF-382): 7.12
selective drug sensitivity score (KASUMI-10): 8.52
selective drug sensitivity score (NALM-16): 0.72
selective drug sensitivity score (KASUMI-9): 6.52
selective drug sensitivity score (MOLT-4): 0.82
selective drug sensitivity score (DND-41): 3.62
selective drug sensitivity score 697: 3.32
selective drug sensitivity score (MHH-CALL-3): 6.92
selective drug sensitivity score (TANOUE): -4.68
selective drug sensitivity score (MHH-CALL-2): 3.12
selective drug sensitivity score (CCRF-HSB2): 29.1
selective drug sensitivity score (SEM cells): 9.62
selective drug sensitivity score (NALM-6): 3.42
selective drug sensitivity score (P12-ICHIKAWA): 1.12
selective drug sensitivity score (KARPAS-45): 4.12
selective drug sensitivity score (COG-LL-332h): 6.42
selective drug sensitivity score (COG-LL-394h): 4.42
selective drug sensitivity score (MOLT-14): 3.42
selective drug sensitivity score (P30-OHKUBO): 8.52
selective drug sensitivity score (COG-LL-355h): -0.08

CC[C@H](CC#N)OC(=O)N[C@@H](C)c1cccc(NC(=O)Nc2ccc(-c3cnco3)c(OC)c2)c1 [AVN944] (top concentration 10000 nM)
selective drug sensitivity score (PF-382): 10.2
selective drug sensitivity score (KASUMI-10): 10.1
selective drug sensitivity score (NALM-16): 0.24
selective drug sensitivity score (KASUMI-9): 13.5
selective drug sensitivity score (MOLT-4): 15.6
selective drug sensitivity score (DND-41): 8.44
selective drug sensitivity score 697: 17.5
selective drug sensitivity score (MHH-CALL-3): 11.1
selective drug sensitivity score (TANOUE): -3.66
selective drug sensitivity score (MHH-CALL-2): 9.54
selective drug sensitivity score (CCRF-HSB2): 14.5
selective drug sensitivity score (SEM cells): 7.04
selective drug sensitivity score (NALM-6): 15.5
selective drug sensitivity score (P12-ICHIKAWA): 14.2
selective drug sensitivity score (KARPAS-45): 8.84
selective drug sensitivity score (COG-LL-332h): 18
selective drug sensitivity score (COG-LL-394h): -2.06
selective drug sensitivity score (MOLT-14): 15.9
selective drug sensitivity score (P30-OHKUBO): 13.8
selective drug sensitivity score (COG-LL-355h): -2.16

COc1ccc(-c2ccc3c(N4CCOC[C@@H]4C)nc(N4CCOC[C@@H]4C)nc3n2)cc1CO [AZD8055] (top concentration 10000 nM)
selective drug sensitivity score (PF-382): 9.18
selective drug sensitivity score (KASUMI-10): 0.48
selective drug sensitivity score (NALM-16): 1.78
selective drug sensitivity score (KASUMI-9): 13.3
selective drug sensitivity score (MOLT-4): 7.08
selective drug sensitivity score (DND-41): 4.78
selective drug sensitivity score 697: 16.8
selective drug sensitivity score (MHH-CALL-3): -0.52
selective drug sensitivity score (TANOUE): -3.02
selective drug sensitivity score (MHH-CALL-2): 6.08
selective drug sensitivity score (CCRF-HSB2): 10.1
selective drug sensitivity score (SEM cells): 6.18
selective drug sensitivity score (NALM-6): 3.68
selective drug sensitivity score (P12-ICHIKAWA): 6.78
selective drug sensitivity score (KARPAS-45): 4.78
selective drug sensitivity score (COG-LL-332h): 8.08
selective drug sensitivity score (COG-LL-394h): -2.42
selective drug sensitivity score (MOLT-14): 1.18
selective drug sensitivity score (P30-OHKUBO): 16.6
selective drug sensitivity score (COG-LL-355h): 6.38

COc1cccc2c1C(=O)c1c(O)c3c(c(O)c1C2=O)C[C@@](O)(C(=O)CO)C[C@@H]3O[C@H]1C[C@H](N)[C@@H](O)[C@H](C)O1 [Epirubicin] (top concentration 1000 nM)
selective drug sensitivity score (PF-382): 2.12
selective drug sensitivity score (KASUMI-10): 5.82
selective drug sensitivity score (NALM-16): -0.28
selective drug sensitivity score (KASUMI-9): 7.62
selective drug sensitivity score (MOLT-4): 9.92
selective drug sensitivity score (DND-41): -0.58
selective drug sensitivity score 697: 10.1
selective drug sensitivity score (MHH-CALL-3): 14.8
selective drug sensitivity score (TANOUE): -7.88
selective drug sensitivity score (MHH-CALL-2): 6.12
selective drug sensitivity score (CCRF-HSB2): 14.8
selective drug sensitivity score (SEM cells): 3.82
selective drug sensitivity score (NALM-6): 3.82
selective drug sensitivity score (P12-ICHIKAWA): 4.62
selective drug sensitivity score (KARPAS-45): -0.28
selective drug sensitivity score (COG-LL-332h): 11.3
selective drug sensitivity score (COG-LL-394h): 6.82
selective drug sensitivity score (MOLT-14): 11.6
selective drug sensitivity score (P30-OHKUBO): 6.92
selective drug sensitivity score (COG-LL-355h): 3.22

CO[C@H]1C[C@@H]2CC[C@@H](C)[C@@](O)(O2)C(=O)C(=O)N2CCCC[C@H]2C(=O)O[C@H]([C@H](C)C[C@@H]2CC[C@@H](OCCO)[C@H](OC)C2)CC(=O)[C@H](C)/C=C(\C)[C@@H](O)[C@@H](OC)C(=O)[C@H](C)C[C@H](C)/C=C/C=C/C=C/1C [Everolimus] (top concentration 100 nM)
selective drug sensitivity score (PF-382): 1.9
selective drug sensitivity score (KASUMI-10): -5.3
selective drug sensitivity score (NALM-16): -2
selective drug sensitivity score (KASUMI-9): 10.3
selective drug sensitivity score (MOLT-4): -1.2
selective drug sensitivity score (DND-41): 1.1
selective drug sensitivity score 697: 9.3
selective drug sensitivity score (MHH-CALL-3): 3.4
selective drug sensitivity score (TANOUE): -5.3
selective drug sensitivity score (MHH-CALL-2): 4.2
selective drug sensitivity score (CCRF-HSB2): 4.8
selective drug sensitivity score (SEM cells): 1.4
selective drug sensitivity score (NALM-6): -3.8
selective drug sensitivity score (P12-ICHIKAWA): -2.5
selective drug sensitivity score (KARPAS-45): 0.2
selective drug sensitivity score (COG-LL-332h): 4.5
selective drug sensitivity score (COG-LL-394h): -4.9
selective drug sensitivity score (MOLT-14): -2.2
selective drug sensitivity score (P30-OHKUBO): 2
selective drug sensitivity score (COG-LL-355h): 1.5

CON(C)C(=O)N1N=C(c2cc(F)ccc2F)S[C@@]1(CCCN)c1ccccc1 [Filanesib] (top concentration 1000 nM)
selective drug sensitivity score (PF-382): 12.5
selective drug sensitivity score (KASUMI-10): 14.2
selective drug sensitivity score (NALM-16): 16.6
selective drug sensitivity score (KASUMI-9): 12.4
selective drug sensitivity score (MOLT-4): 9.3
selective drug sensitivity score (DND-41): 6.3
selective drug sensitivity score 697: 23
selective drug sensitivity score (MHH-CALL-3): 5.2
selective drug sensitivity score (TANOUE): -6.5
selective drug sensitivity score (MHH-CALL-2): 16.4
selective drug sensitivity score (CCRF-HSB2): 22.5
selective drug sensitivity score (SEM cells): 20.3
selective drug sensitivity score (NALM-6): 21
selective drug sensitivity score (P12-ICHIKAWA): 15.9
selective drug sensitivity score (KARPAS-45): 20.9
selective drug sensitivity score (COG-LL-332h): 21.1
selective drug sensitivity score (COG-LL-394h): 8.7
selective drug sensitivity score (MOLT-14): 22.9
selective drug sensitivity score (P30-OHKUBO): 9.9
selective drug sensitivity score (COG-LL-355h): 1.7

CN(Cc1cnc2nc(N)nc(N)c2n1)c1ccc(C(=O)N[C@@H](CCC(=O)O)C(=O)O)cc1 [Methotrexate] (top concentration 5000 nM)
selective drug sensitivity score (PF-382): 11.7
selective drug sensitivity score (KASUMI-10): 9.88
selective drug sensitivity score (NALM-16): 6.68
selective drug sensitivity score (KASUMI-9): -0.42
selective drug sensitivity score (MOLT-4): 11.2
selective drug sensitivity score (DND-41): 15
selective drug sensitivity score 697: 0.58
selective drug sensitivity score (MHH-CALL-3): 10.4
selective drug sensitivity score (TANOUE): 15.3
selective drug sensitivity score (MHH-CALL-2): 13.8
selective drug sensitivity score (CCRF-HSB2): 14
selective drug sensitivity score (SEM cells): -0.42
selective drug sensitivity score (NALM-6): 16.4
selective drug sensitivity score (P12-ICHIKAWA): 15.8
selective drug sensitivity score (KARPAS-45): 11.5
selective drug sensitivity score (COG-LL-332h): 11.3
selective drug sensitivity score (COG-LL-394h): 1.68
selective drug sensitivity score (MOLT-14): 10.8
selective drug sensitivity score (P30-OHKUBO): -0.42
selective drug sensitivity score (COG-LL-355h): -0.42

CC[C@@]1(O)C(=O)OCc2c1cc1n(c2=O)Cc2cc3c(CN(C)C)c(O)ccc3nc2-1 [Topotecan] (top concentration 10000 nM)
selective drug sensitivity score (PF-382): 18.2
selective drug sensitivity score (KASUMI-10): 18
selective drug sensitivity score (NALM-16): 7.18
selective drug sensitivity score (KASUMI-9): 18.2
selective drug sensitivity score (MOLT-4): 19.9
selective drug sensitivity score (DND-41): 21.4
selective drug sensitivity score 697: 18.9
selective drug sensitivity score (MHH-CALL-3): 12.2
selective drug sensitivity score (TANOUE): -3.62
selective drug sensitivity score (MHH-CALL-2): 26.6
selective drug sensitivity score (CCRF-HSB2): 23.3
selective drug sensitivity score (SEM cells): 20.3
selective drug sensitivity score (NALM-6): 17.1
selective drug sensitivity score (P12-ICHIKAWA): 19.2
selective drug sensitivity score (KARPAS-45): -0.22
selective drug sensitivity score (COG-LL-332h): 23.9
selective drug sensitivity score (COG-LL-394h): 11.4
selective drug sensitivity score (MOLT-14): 25.9
selective drug sensitivity score (P30-OHKUBO): 18.9
selective drug sensitivity score (COG-LL-355h): 10.9

O=c1[nH]c(=O)n([C@H]2C[C@H](O)[C@@H](CO)O2)cc1C(F)(F)F [Trifluridine] (top concentration 10000 nM)
selective drug sensitivity score (PF-382): 4.16
selective drug sensitivity score (KASUMI-10): 6.36
selective drug sensitivity score (NALM-16): 4.06
selective drug sensitivity score (KASUMI-9): 6.56
selective drug sensitivity score (MOLT-4): 7.36
selective drug sensitivity score (DND-41): 9.76
selective drug sensitivity score 697: 17.9
selective drug sensitivity score (MHH-CALL-3): 6.56
selective drug sensitivity score (TANOUE): -1.84
selective drug sensitivity score (MHH-CALL-2): 9.96
selective drug sensitivity score (CCRF-HSB2): -1.84
selective drug sensitivity score (SEM cells): 14.5
selective drug sensitivity score (NALM-6): 15
selective drug sensitivity score (P12-ICHIKAWA): 15.4
selective drug sensitivity score (KARPAS-45): -1.84
selective drug sensitivity score (COG-LL-332h): 7.46
selective drug sensitivity score (COG-LL-394h): 2.66
selective drug sensitivity score (MOLT-14): 15.4
selective drug sensitivity score (P30-OHKUBO): 11.9
selective drug sensitivity score (COG-LL-355h): 0.06

Cc1sc2c(c1C)C(c1ccc(Cl)cc1)=N[C@@H](CC(=O)NCCCCNC(=O)COc1cccc3c1C(=O)N(C1CCC(=O)NC1=O)C3=O)c1nnc(C)n1-2 (stereo not given in full) [dBET1] (top concentration 10000 nM)
selective drug sensitivity score (PF-382): -8.28
selective drug sensitivity score (KASUMI-10): 2.32
selective drug sensitivity score (NALM-16): -4.48
selective drug sensitivity score (KASUMI-9): 2.42
selective drug sensitivity score (MOLT-4): -9.28
selective drug sensitivity score (DND-41): -0.88
selective drug sensitivity score 697: -0.38
selective drug sensitivity score (MHH-CALL-3): -1.88
selective drug sensitivity score (TANOUE): -17.5
selective drug sensitivity score (MHH-CALL-2): 4.92
selective drug sensitivity score (CCRF-HSB2): 2.12
selective drug sensitivity score (SEM cells): -3.38
selective drug sensitivity score (NALM-6): -4.78
selective drug sensitivity score (P12-ICHIKAWA): -11.6
selective drug sensitivity score (KARPAS-45): -7.68
selective drug sensitivity score (COG-LL-332h): -8.98
selective drug sensitivity score (COG-LL-394h): -2.78
selective drug sensitivity score (MOLT-14): -1.48
selective drug sensitivity score (P30-OHKUBO): 2.82
selective drug sensitivity score (COG-LL-355h): 6.22
